# Reference: the supplement of paper PMC7840683
# Counter-ions that a name gives are not always drawn. ± gives the standard deviation of the averaged measurements.
# Test system: HepaRG
# Assay: LDH release cytotoxicity, % of total lysis control; higher = more cytotoxic
# Conditions: 48 h
# In short: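 HepaRG cells from a single lot were plated on collagen I-coated 96-well plates and treated in duplicate for 48 h with eight-point half-log series of test chemicals, starting at 100 µM, in serum-free induction medium containing 0.5% DMSO. Total lysis wells were given 0.1% Triton X. LDH released into 50 µL of spent medium was measured as resorufin fluorescence with CytoTox-ONE on a Tecan Safire. Percent cytotoxicity was normalized to on-plate vehicle and total lysis controls and then averaged across duplicates.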
SMILES,LDH release cytotoxicity (0.03162 µM),LDH release cytotoxicity (0.1 µM),LDH release cytotoxicity (0.3162278 µM),LDH release cytotoxicity (1 µM),LDH release cytotoxicity (3.16228 µM),LDH release cytotoxicity (10 µM),LDH release cytotoxicity (31.6228 µM),LDH release cytotoxicity (100 µM)
CNC(=O)CSP(=S)(OC)OC [Dimethoate],0.0142 ± 0.81%,0.0233 ± 0.62%,-0.779 ± 0.49%,-1.24 ± 0.51%,-0.679 ± 0.19%,-0.364 ± 0.63%,0.327 ± 0.06%,0.574 ± 0.89%
COc1ccc(C(=CC(=O)N2CCOCC2)c2ccc(Cl)cc2)cc1OC [Dimethomorph],-0.689 ± 0.5%,-1.52 ± 0.24%,-1.7 ± 0.055%,-1.1 ± 0.47%,-0.768 ± 0.71%,-0.565 ± 0.54%,-0.618 ± 0.33%,1.09 ± 0.43%
CC(=O)OC1CC(C)OC(C)O1 (configuration not stated) [Dimethoxane],-0.261 ± 1.2%,-0.746 ± 0.9%,-1.64 ± 0.38%,-1.54 ± 0.41%,-1.77 ± 0.27%,-1.72 ± 0.61%,-1.51 ± 0.86%,4.58 ± 1.8%
COC(=O)CCCCC(=O)OC [Dimethyl adipate],0.892 ± 0.4%,-1.11 ± 0.066%,-1.36 ± 0.49%,-1.52 ± 0.75%,-1.398 ± 0.013%,-1.08 ± 0.68%,-0.702 ± 0.6%,0.485 ± 0.56%
COC(=O)CCCC(=O)OC [Dimethyl glutarate],-0.9 ± 1.2%,-1.35 ± 0.52%,-1.16 ± 1.5%,-1.42 ± 0.98%,-1.03 ± 1.1%,-1.13 ± 0.84%,-1.36 ± 0.88%,3.2 ± 2.1%
COC(=O)CC(=O)OC [Dimethyl malonate],-0.603 ± 0.72%,-0.89 ± 0.63%,-0.395 ± 0.94%,-0.704 ± 0.96%,-0.831 ± 0.86%,-0.0631 ± 0.27%,0.8 ± 0.35%,1.4 ± 0.021%
COC(=O)c1ccccc1C(=O)OC [Dimethyl phthalate],-0.705 ± 0.12%,-1.99 ± 0.097%,-1.58 ± 0.53%,-2.6 ± 0.29%,-1.11 ± 0.29%,-0.678 ± 0.68%,-0.11 ± 0.75%,1.18 ± 0.58%
COC(=O)CCC(=O)OC [Dimethyl succinate],-1.91 ± 0.15%,-0.897 ± 0.57%,-1.76 ± 0.078%,-2.16 ± 0.17%,-1.84 ± 0.28%,-1.56 ± 0.26%,-1.39 ± 0.24%,0.319 ± 0.33%
COS(=O)(=O)OC [Dimethyl sulfate],-0.536 ± 0.23%,-0.931 ± 0.64%,-1.52 ± 1%,-1.6 ± 0.65%,-1.18 ± 0.15%,-0.291 ± 0.98%,-1.17 ± 1.2%,3.53 ± 0.11%
COC(=O)c1ccc(C(=O)OC)cc1 [Dimethyl terephthalate],0.0234 ± 1%,-0.391 ± 1.6%,-1.12 ± 0.61%,-0.654 ± 0.052%,-0.533 ± 0.33%,0.0948 ± 0.34%,0.365 ± 0.88%,2.87 ± 0.72%
CN(C)CCO [Dimethylaminoethanol],0.182 ± 0.62%,-0.302 ± 1.6%,-0.0529 ± 0.18%,-1.37 ± 0.049%,-1.09 ± 1.8%,-1.02 ± 0.62%,-0.601 ± 0.24%,1.07 ± 0.52%
CN(C)C(=O)Cl [Dimethylcarbamoyl chloride],-1.3 ± 0.049%,-0.716 ± 0.62%,-0.579 ± 0.073%,-0.789 ± 0.59%,-0.264 ± 0.42%,-0.4 ± 0.096%,-0.611 ± 0.2%,0.647 ± 0.56%
CC(C)(C)C(O)C(=Cc1ccc(Cl)cc1Cl)n1cncn1 (configuration not stated) [Diniconazole],-0.57 ± 1.1%,-1.77 ± 1.1%,-0.96 ± 0.019%,-0.38 ± 0.69%,0.433 ± 0.38%,-0.346 ± 1.4%,0.723 ± 1.1%,1.41 ± 0.97%
CCC(C)c1cc([N+](=O)[O-])cc([N+](=O)[O-])c1O (configuration not stated) [Dinoseb],-1.28 ± 0.054%,0.378 ± 0.78%,-1.3 ± 0.076%,-1.58 ± 0.37%,-0.982 ± 1%,-0.113 ± 0.038%,0.81 ± 0.59%,2.87 ± 1.4%
CCCCCCCCOC(=O)CCCCCCCCC(=O)OCCCCCCCC [Dioctyl sebacate],-0.979 ± 0.56%,-1.87 ± 0.14%,-1.9 ± 0.45%,-1.13 ± 0.44%,-1.59 ± 0.11%,-0.887 ± 0.82%,5.14 ± 1.2%,68.74 ± 0.047%
CCCCCOC(=O)c1ccccc1C(=O)OCCCCC [Dipentyl phthalate],-0.338 ± 1.3%,-1.03 ± 0.79%,-1.76 ± 0.55%,-0.0572 ± 0.49%,10.4 ± 0.42%,55.1 ± 3.3%,47.6 ± 0.78%,43.3 ± 0.68%
CN(C)CCOC(c1ccccc1)c1ccccc1 [Diphenhydramine hydrochloride],-0.0757 ± 0.11%,-1.04 ± 0.17%,-0.977 ± 0.34%,-1.8 ± 1.1%,-1.62 ± 0.031%,-0.793 ± 0.26%,-0.772 ± 0.23%,1.1 ± 0.12%
O=C(Oc1ccccc1)c1cccc(C(=O)Oc2ccccc2)c1 [Diphenyl isophthalate],-0.961 ± 0.23%,-0.451 ± 0.024%,-0.0836 ± 0.51%,-0.13 ± 0.26%,-0.548 ± 1.1%,-0.00904 ± 1.2%,0.842 ± 0.83%,2.16 ± 1.3%
c1ccc(Nc2ccccc2)cc1 [Diphenylamine],-0.79 ± 0.82%,-0.775 ± 0.35%,-0.986 ± 0.56%,-1.44 ± 0.19%,-1.13 ± 0.35%,-1 ± 0.56%,0.0424 ± 0.62%,3.57 ± 0.064%
